From PubChem BioAssay AID1259407 (Chemical Carcinogenesis Research Information System (CCRIS), 2018)
Active and inactive are the calls of the source. How the calls were made is not given here.

Tested on: CCRIS mutagenicity, Ames/micronucleus/aberration tests
Assay: CCRIS mutagenicity studies
[1] = Test System: AMES SALMONELLA TYPHIMURIUM, Strain/Indicator: TA98, Metabolic Activation: NONE, Method: PREINCUBATION
[2] = Test System: AMES SALMONELLA TYPHIMURIUM, Strain/Indicator: TA98, Metabolic Activation: NONE, Method: STANDARD PLATE
[3] = Test System: AMES SALMONELLA TYPHIMURIUM, Strain/Indicator: TA98, Metabolic Activation: RAT, LIVER, S-9, AROCLOR 1254, Method: STANDARD PLATE
[4] = Test System: AMES SALMONELLA TYPHIMURIUM, Strain/Indicator: TA100, Metabolic Activation: NONE, Method: PREINCUBATION
[5] = Test System: AMES SALMONELLA TYPHIMURIUM, Strain/Indicator: TA100, Metabolic Activation: RAT, LIVER, S-9, AROCLOR 1254, Method: STANDARD PLATE
[6] = Test System: AMES SALMONELLA TYPHIMURIUM, Strain/Indicator: TA1535, Metabolic Activation: NONE, Method: PREINCUBATION

SMILES: Cc1ccc(S(=O)(=O)NN)cc1
- mutagenic call (End Point: IN VITRO CHROMOSOMAL ABERRATIONS, Test System: CHL CELLS, Metabolic Activation: RAT, LIVER, S-9, SODIUM PHENOBARBITAL AND 5,6-BENZOFLAVONE): active; positive (structural changes)
- mutagenic call (Test System: AMES SALMONELLA TYPHIMURIUM, Strain/Indicator: TA97, Metabolic Activation: NONE, Method: STANDARD PLATE): inactive; negative
- mutagenic call (Test System: AMES SALMONELLA TYPHIMURIUM, Strain/Indicator: TA97, Metabolic Activation: RAT, LIVER, S-9, AROCLOR 1254, Method: STANDARD PLATE): inactive; negative
- mutagenic call (Test System: AMES SALMONELLA TYPHIMURIUM, Strain/Indicator: TA98, Metabolic Activation: HAMSTER, LIVER, S-9, AROCLOR 1254, Method: STANDARD PLATE): inactive; negative
- mutagenic call [1]: inactive; negative
- mutagenic call [2]: inactive; negative
- mutagenic call (Test System: AMES SALMONELLA TYPHIMURIUM, Strain/Indicator: TA98, Metabolic Activation: RAT LIVER S-9, PHENOBARBITAL AND BETA-NAPHTHOFLAVONE, Method: PREINCUBATION): inactive; negative
- mutagenic call [3]: inactive; negative
- mutagenic call (Test System: AMES SALMONELLA TYPHIMURIUM, Strain/Indicator: TA100, Metabolic Activation: HAMSTER, LIVER, S-9, AROCLOR 1254, Method: STANDARD PLATE): active; positive
- mutagenic call [4]: active; positive
- mutagenic call (Test System: AMES SALMONELLA TYPHIMURIUM, Strain/Indicator: TA100, Metabolic Activation: NONE, Method: STANDARD PLATE): active; positive
- mutagenic call (Test System: AMES SALMONELLA TYPHIMURIUM, Strain/Indicator: TA100, Metabolic Activation: RAT LIVER S-9, PHENOBARBITAL AND BETA-NAPHTHOFLAVONE, Method: PREINCUBATION): active; positive
- mutagenic call [5]: active; positive
- mutagenic call (Test System: AMES SALMONELLA TYPHIMURIUM, Strain/Indicator: TA102, Metabolic Activation: NONE, Method: STANDARD PLATE): inactive; negative
- mutagenic call (Test System: AMES SALMONELLA TYPHIMURIUM, Strain/Indicator: TA102, Metabolic Activation: RAT, LIVER, S-9, AROCLOR 1254, Method: STANDARD PLATE): inactive; negative
- mutagenic call [6]: active; positive
- mutagenic call (Test System: AMES SALMONELLA TYPHIMURIUM, Strain/Indicator: TA1535, Metabolic Activation: RAT LIVER S-9, PHENOBARBITAL AND BETA-NAPHTHOFLAVONE, Method: PREINCUBATION): active; positive
- mutagenic call (Test System: AMES SALMONELLA TYPHIMURIUM, Strain/Indicator: TA1537, Metabolic Activation: NONE, Method: PREINCUBATION): inactive; negative
- mutagenic call (Test System: AMES SALMONELLA TYPHIMURIUM, Strain/Indicator: TA1537, Metabolic Activation: RAT LIVER S-9, PHENOBARBITAL AND BETA-NAPHTHOFLAVONE, Method: PREINCUBATION): inactive; negative
- mutagenic call (Test System: AMES SALMONELLA TYPHIMURIUM, Strain/Indicator: TA1538, Metabolic Activation: NONE, Method: PREINCUBATION): inactive; negative
- mutagenic call (Test System: AMES SALMONELLA TYPHIMURIUM, Strain/Indicator: TA1538, Metabolic Activation: RAT LIVER S-9, PHENOBARBITAL AND BETA-NAPHTHOFLAVONE, Method: PREINCUBATION): inactive; negative
- mutagenic call (Test System: E.COLI, Strain/Indicator: WP2UVRA, Metabolic Activation: NONE, Method: PREINCUBATION): active; positive
- mutagenic call (Test System: E.COLI, Strain/Indicator: WP2UVRA, Metabolic Activation: RAT LIVER S-9, PHENOBARBITAL AND BETA-NAPHTHOFLAVONE, Method: PREINCUBATION): active; positive
- mutagenic call (Test System: MOUSE LYMPHOMA, Strain/Indicator: L5178Y (TK+/TK-), Metabolic Activation: NONE, Method: SUSPENSION/PLATE): active; positive. reevaluation of results: positive
- mutagenic call (Test System: MOUSE LYMPHOMA, Strain/Indicator: L5178Y (TK+/TK-), Metabolic Activation: RAT, LIVER, S-9, AROCLOR 1254, Method: SUSPENSION/PLATE): active; positive. reevaluation of results: equivocal

SMILES: Cc1ccc2c(c1)Cc1cc(C)ccc1-2
- mutagenic call [3]: inactive; negative
- mutagenic call [5]: inactive; negative

SMILES: Cc1ccc2nc3c4c(ccc3c(C)c2c1)[C@H](O)[C@@H](O)C=C4
- mutagenic call [5]: active; positive

SMILES: CN(N=O)C(C)(C)C
- mutagenic call (Test System: CHINESE HAMSTER V-79, Strain/Indicator: V-79/OUABAIN, Metabolic Activation: HAMSTER, HEPATOCYTES, Method: CELL-MEDIATED): inactive; negative

SMILES: CCNc1ccccc1
- mutagenic call (Test System: AMES SALMONELLA TYPHIMURIUM, Strain/Indicator: TA97, Metabolic Activation: HAMSTER, LIVER, S-9, AROCLOR 1254 (10 OR 30%), Method: PREINCUBATION): inactive; negative
- mutagenic call (Test System: AMES SALMONELLA TYPHIMURIUM, Strain/Indicator: TA97, Metabolic Activation: NONE, Method: PREINCUBATION): inactive; negative
- mutagenic call (Test System: AMES SALMONELLA TYPHIMURIUM, Strain/Indicator: TA97, Metabolic Activation: RAT, LIVER, S-9, AROCLOR 1254 (10 OR 30%), Method: PREINCUBATION): inactive; negative
- mutagenic call (Test System: AMES SALMONELLA TYPHIMURIUM, Strain/Indicator: TA98, Metabolic Activation: HAMSTER, LIVER, S-9, AROCLOR 1254 (10 OR 30%), Method: PREINCUBATION): inactive; negative
- mutagenic call [1]: inactive; negative
- mutagenic call (Test System: AMES SALMONELLA TYPHIMURIUM, Strain/Indicator: TA98, Metabolic Activation: RAT, LIVER, S-9, AROCLOR 1254 (10 OR 30%), Method: PREINCUBATION): inactive; negative
- mutagenic call (Test System: AMES SALMONELLA TYPHIMURIUM, Strain/Indicator: TA100, Metabolic Activation: HAMSTER, LIVER, S-9, AROCLOR 1254 (10 OR 30%), Method: PREINCUBATION): inactive; negative
- mutagenic call [4]: inactive; negative
- mutagenic call (Test System: AMES SALMONELLA TYPHIMURIUM, Strain/Indicator: TA100, Metabolic Activation: RAT, LIVER, S-9, AROCLOR 1254 (10 OR 30%), Method: PREINCUBATION): inactive; negative
- mutagenic call (Test System: AMES SALMONELLA TYPHIMURIUM, Strain/Indicator: TA1535, Metabolic Activation: HAMSTER, LIVER, S-9, AROCLOR 1254 (10 OR 30%), Method: PREINCUBATION): inactive; negative
- mutagenic call [6]: inactive; negative
- mutagenic call (Test System: AMES SALMONELLA TYPHIMURIUM, Strain/Indicator: TA1535, Metabolic Activation: RAT, LIVER, S-9, AROCLOR 1254 (10 OR 30%), Method: PREINCUBATION): inactive; negative

SMILES: O=[N+]([O-])c1nc2ccccc2[nH]1
- mutagenic call [2]: active; positive
